Ki data for 27 molecules are collected here from patent publication US10590140B2, “Tetrahydropyrimidodiazepine and dihydropyridodiazepine compounds for treating pain and pain related conditions” (ESTEVE PHARMACEUTICALS, S.A., priority 2016, dated 2020).

For this test, the target named is human α2δ-1 subunit of Cav2.2 calcium channel (Homo sapiens (Human), UniProt P54289). The test is described as follows: Binding assay to human α2δ-1 subunit of Cav2.2 calcium channel ([3H]-Gabapentin). To be noted: for Ki: read-out: Ki (nM) α2δ-1. In short, it runs like this: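 Radioactivity on dried GF/C filters quantified by scintillation after filtration and three cold Tris-HCl (pH 7.4) washes. Incubation ran 60 min at 27° C with [3H]-gabapentin; 10 μM pregabalin gave nonspecific binding.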
human α2δ-1 subunit of Cav2.2 calcium channel, sequence (P54289 25-1103): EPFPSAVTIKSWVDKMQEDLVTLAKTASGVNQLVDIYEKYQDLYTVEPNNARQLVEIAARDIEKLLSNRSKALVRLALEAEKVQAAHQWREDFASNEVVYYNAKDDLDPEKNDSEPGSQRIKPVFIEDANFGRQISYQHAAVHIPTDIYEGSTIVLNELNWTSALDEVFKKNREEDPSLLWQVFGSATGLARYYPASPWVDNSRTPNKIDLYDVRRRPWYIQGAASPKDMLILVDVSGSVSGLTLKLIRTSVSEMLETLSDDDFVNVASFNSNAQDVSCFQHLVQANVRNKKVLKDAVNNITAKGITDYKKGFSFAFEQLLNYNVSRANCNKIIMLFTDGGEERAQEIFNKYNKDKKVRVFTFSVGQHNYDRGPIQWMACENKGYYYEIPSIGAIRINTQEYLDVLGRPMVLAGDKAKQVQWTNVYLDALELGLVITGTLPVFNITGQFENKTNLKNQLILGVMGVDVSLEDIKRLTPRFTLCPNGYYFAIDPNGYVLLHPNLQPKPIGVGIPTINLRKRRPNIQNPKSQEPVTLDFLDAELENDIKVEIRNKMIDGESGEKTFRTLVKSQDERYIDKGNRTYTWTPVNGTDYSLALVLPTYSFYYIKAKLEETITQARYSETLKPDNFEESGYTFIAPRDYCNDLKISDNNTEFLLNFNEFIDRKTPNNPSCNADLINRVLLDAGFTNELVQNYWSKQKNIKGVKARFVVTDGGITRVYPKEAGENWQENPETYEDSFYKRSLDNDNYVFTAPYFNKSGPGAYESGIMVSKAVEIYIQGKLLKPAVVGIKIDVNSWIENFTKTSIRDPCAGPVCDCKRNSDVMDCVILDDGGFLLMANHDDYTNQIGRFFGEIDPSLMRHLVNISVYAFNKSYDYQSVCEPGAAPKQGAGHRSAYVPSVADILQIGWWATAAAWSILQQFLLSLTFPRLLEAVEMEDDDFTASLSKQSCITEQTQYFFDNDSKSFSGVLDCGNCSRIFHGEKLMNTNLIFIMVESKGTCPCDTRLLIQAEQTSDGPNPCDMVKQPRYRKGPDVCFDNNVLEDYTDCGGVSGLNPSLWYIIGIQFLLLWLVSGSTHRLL

The mark [1] stands for this setting: binding to α2δ-1, [3H]-Gabapentin.
The mark [2] stands for this setting: Table 2, dual compounds, [3H]-Gabapentin binding.

pKi: −log10 of the molar value. Like-named read-outs stand apart in the source and are kept apart here.

The term Ki denotes a dissociation constant, usually derived from enzyme kinetics or from competition with a known ligand. Turning to `COc1ncc2c(n1)N(C)CCN(c1cccc(COC(CCN(C)C(=O)OC(C)(C)C)c3cccs3)c1)C2=O` (centres unmarked) [Example 139, tert-butyl (3-((3-(2-methoxy-9-methyl-5-oxo-5,7,8,9-tetrahydro-6H-pyrimido[4,5-e][1,4]diazepin-6-yl)benzyl)oxy)-3-(thiophen-2-yl)propyl)(methyl)carbamate], the Ki under setting [1] was > 3000 nM.
Take `CCNc1ncc2c(n1)N(C)CCN(c1cccc(OCCNC)c1)C2=O` [Example 170, 2-(ethylamino)-9-methyl-6-(3-(2-(methylamino)ethoxy)phenyl)-6,7,8,9-tetrahydro-5H-pyrimido[4,5-e][1,4]diazepin-5-one]: the Ki under setting [1] was in the range of 100 to 500 nM.
On to `CCNc1ncc2c(n1)N(C)CCN(c1cccc(CCCN(C)C(=O)OC(C)(C)C)c1)C2=O` [Example 91, tert-butyl (3-(3-(2-(ethylamino)-9-methyl-5-oxo-5,7,8,9-tetrahydro-6H-pyrimido[4,5-e][1,4]diazepin-6-yl)phenyl)propyl) (methyl)carbamate], for which, under setting [1], the Ki is > 3000 nM.
On to `CCNc1ncc2c(n1)N(C)CCN(c1cccc(CO[C@H](CCNC)c3cccs3)c1)C2=O` [Example 212, (R)-2-(ethylamino)-9-methyl-6-(3-((3-(methylamino)-1-(thiophen-2-yl)propoxy)methyl)phenyl)-6,7,8,9-tetrahydro-5H-pyrimido[4,5-e][1,4]diazepin-5-one], for which the Ki is, setting by setting: under setting [2], 100 to 500 nM; under setting [1], 100 to 500 nM.
For the molecule `CSc1ncc2c(n1)N(C)CCN(c1cccc(-n3cc(CN(C)C(=O)OC(C)(C)C)nn3)c1)C2=O` [Example 39, tert-butyl methyl((1-(3-(9-methyl-2-(methylthio)-5-oxo-5,7,8,9-tetrahydro-6H-pyrimido[4,5-e][1,4]diazepin-6-yl)phenyl)-1H-1,2,3-triazol-4-yl)methyl) carbamate], under setting [1], the Ki was > 3000 nM.
As for `CCNc1ncc2c(n1)N(C)CCN(c1ccc(O[Si](C)(C)C(C)(C)C)cc1)C2=O` [Example 115], the Ki under setting [1] was > 3000 nM.
For `CNCC[C@H](Oc1ccc(CN2CCN(C)c3nc(OC)ncc3C2=O)c(F)c1)c1cccs1` [Example 401, (S)-6-(2-fluoro-4-(3-(methylamino)-1-(thiophen-2-yl)propoxy)benzyl)-2-methoxy-9-methyl-6,7,8,9-tetrahydro-5H-pyrimido[4,5-e][1,4]diazepin-5-one], the Ki under setting [1] was < 100 nM.
Regarding `CCNc1ncc2c(n1)N(C)CCN(c1cccc(CCNC)c1)C2=O` [Example 172, 2-(ethylamino)-9-methyl-6-(3-(2-(methylamino)ethyl)phenyl)-6,7,8,9-tetrahydro-5H-pyrimido[4,5-e][1,4]diazepin-5-one], the inhibition constant (Ki) under setting [1] fell in the range of 100 to 500 nM.
For the molecule `CCNc1ncc2c(n1)N(C)CCN(c1cccc(COC(CCNC)c3cccs3)c1)C2=O` (centres unmarked) [Example 211, 2-(ethylamino)-9-methyl-6-(3-((3-(methylamino)-1-(thiophen-2-yl)propoxy)methyl)phenyl)-6,7,8,9-tetrahydro-5H-pyrimido[4,5-e][1,4]diazepin-5-one], the Ki runs as follows: under setting [2], 100 to 500 nM; under setting [1], 100 to 500 nM.
As for `CSc1ncc2c(n1)N(C)CCN(c1cccc(OC(CCN(C)C(=O)OCC[Si](C)(C)C)c3cccs3)c1)C2=O` (centres unmarked) [Example 51, 2-(trimethyl-silyl)ethyl methyl(3-(3-(9-methyl-2-(methylthio)-5-oxo-5,7,8,9-tetrahydro-6H-pyrimido[4,5-e][1,4]diazepin-6-yl)phenoxy)-3-(thiophen-2-yl)propyl) carbamate], under setting [1], the inhibition constant (Ki) was > 3000 nM.
Take `CNCC[C@H](Oc1ccc(CN2CCN(C)c3nc(OC)ncc3C2=O)c(C)c1)c1cccs1` [Example 397, (S)-2-methoxy-9-methyl-6-(2-methyl-4-(3-(methylamino)-1-(thiophen-2-yl)propoxy)benzyl)-6,7,8,9-tetrahydro-5H-pyrimido[4,5-e][1,4]diazepin-5-one]: the Ki under setting [1] is < 100 nM.
`CCNc1ncc2c(n1)N(C)CCN(Cc1ccc(CNC)cc1)C2=O` [Example 202, 2-(ethylamino)-9-methyl-6-(4-((methylamino)methyl)benzyl)-6,7,8,9-tetrahydro-5H-pyrimido[4,5-e][1,4]diazepin-5-one]: the Ki under setting [1] lay in the range of 500 to 3000 nM.
On to `CCNc1ncc2c(n1)N(C)CCN(c1cccc(OC3CCN(C(=O)OC(C)(C)C)C3)c1)C2=O` (centres unmarked) [Example 95, tert-butyl 3-(3-(2-(ethylamino)-9-methyl-5-oxo-5,7,8,9-tetrahydro-6H-pyrimido[4,5-e][1,4]diazepin-6-yl)phenoxy)pyrrolidine-1-carboxylate], for which the Ki under setting [1] is > 3000 nM.
Regarding `Cc1cc2c(cn1)C(=O)N(Cc1ccc(O[C@@H](CCN(C)C(=O)OCC[Si](C)(C)C)c3cccs3)cc1)CCN2C` [Example 301, 2-(trimethylsilyl)ethyl (S)-(3-(4-((1,8-dimethyl-5-oxo-1,2,3,5-tetrahydro-4H-pyrido[4,3-e][1,4]diazepin-4-yl)methyl)phenoxy)-3-(thiophen-2-yl)propyl)(methyl) carbamate], the Ki under setting [1] is > 3000 nM.
On to `CCNc1ncc2c(n1)N(C)CCN(Cc1cccc(OC(CNC)c3ccccc3)c1)C2=O` (centres unmarked) [Example 200, 2-(ethylamino)-9-methyl-6-(3-(2-(methylamino)-1-phenylethoxy)benzyl)-6,7,8,9-tetrahydro-5H-pyrimido[4,5-e][1,4]diazepin-5-one], for which, under setting [1], the Ki was > 3000 nM.
Still for that read-out and setting: with `CCNc1ncc2c(n1)N(C)CCN(c1cccc(CO[C@@H](CCN(C)C(=O)OC(C)(C)C)c3cccs3)c1)C2=O` [Example 85, tert-butyl (S)-(3-((3-(2-(ethylamino)-9-methyl-5-oxo-5,7,8,9-tetrahydro-6H-pyrimido[4,5-e][1,4]diazepin-6-yl)benzyl)oxy)-3-(thiophen-2-yl)propyl)(methyl) carbamate] the figure was > 3000 nM; with `CSc1ncc2c(n1)N(C)CCN(c1cccc(O[C@H](CCN(C)C(=O)OC(C)(C)C)c3ccccc3)c1)C2=O` [Example 2, tert-butyl (R)-methyl(3-(3-(9-methyl-2-(methylthio)-5-oxo-5,7,8,9-tetrahydro-6H-pyrimido[4,5-e][1,4]diazepin-6-yl)phenoxy)-3-phenylpropyl) carbamate], > 3000 nM; with `CCNc1ncc2c(n1)N(C)CCN(c1cccc(CO[C@H](CCN(C)C(=O)OC(C)(C)C)c3ccccc3)c1)C2` [Example 65, tert-Butyl (R)-(3-((3-(2-(ethylamino)-9-methyl-5,7,8,9-tetrahydro-6H-pyrimido[4,5-e][1,4]diazepin-6-yl)benzyl)oxy)-3-phenylpropyl)(methyl)carbamate], > 3000 nM.
With `CCNc1ncc2c(n1)N(C)CCN(c1cccc(C(=O)OC)c1)C2=O` [Example 309, methyl 3-(2-(ethylamino)-9-methyl-5-oxo-5,7,8,9-tetrahydro-6H-pyrimido[4,5-e][1,4]diazepin-6-yl)benzoate], the Ki under setting [1] was in the range of 100 to 500 nM.
Regarding `CCNc1ncc2c(n1)N(C)CCN(c1cccc(-n3cc(CN4CCc5ccccc5C4)nn3)c1)C2=O` [Example 282, 6-(3-(4-((3,4-dihydroisoquinolin-2(1H)-yl)methyl)-1H-1,2,3-triazol-1-yl)phenyl)-2-(ethylamino)-9-methyl-6,7,8,9-tetrahydro-5H-pyrimido[4,5-e] [1,4]diazepin-5-one], the Ki under setting [1] lay within 500 to 3000 nM.
Regarding `CCNc1ncc2c(n1)N(C)CCN(c1cccc(OC3CCN(Cc4ccccc4)C3)c1)C2=O` (centres unmarked) [Example 266, 6-(3-((1-benzylpyrrolidin-3-yl)oxy)phenyl)-2-(ethylamino)-9-methyl-6,7,8,9-tetrahydro-5H-pyrimido[4,5-e][1,4]diazepin-5-one], under setting [1], the Ki was in the range of 100 to 500 nM.
In the case of `CCNc1ncc2c(n1)N(C)CCN(c1cccc(-c3nnc(C)o3)c1)C2=O` [Example 97, 2-(ethylamino)-9-methyl-6-(3-(5-methyl-1,3,4-oxadiazol-2-yl)phenyl)-6,7,8,9-tetrahydro-5H-pyrimido[4,5-e][1,4]diazepin-5-one], the Ki under setting [1] was < 100 nM.
Turning to `CCNc1ncc2c(n1)N(C)CCN(c1cccc(OC(C)CN(C)CCc3ccccc3)c1)C2=O` (centres unmarked) [Example 263, 2-(ethylamino)-9-methyl-6-(3-((1-(methyl(phenethyl)amino)propan-2-yl)oxy)phenyl)-6,7,8,9-tetrahydro-5H-pyrimido[4,5-e][1,4]diazepin-5-one], the inhibition constant Ki under setting [1] lay in the range of 500 to 3000 nM.
As to `CN(CC[C@@H](OCc1cccc(N2CCN(C)c3nc(O)ncc3C2=O)c1)c1ccccc1)C(=O)OC(C)(C)C` [Example 140, tert-Butyl (R)-(3-((3-(2-hydroxy-9-methyl-5-oxo-5,7,8,9-tetrahydro-6H-pyrimido[4,5-e][1,4]diazepin-6-yl)benzyl)oxy)-3-phenylpropyl)(methyl)carbamate], the Ki under setting [1] was > 3000 nM.
Regarding `CCNc1ncc2c(n1)N(C)CCN(c1cccc(-n3cc(CCN(C)CCc4ccccc4)nn3)c1)C2=O` [Example 249, 2-(ethylamino)-9-methyl-6-(3-(4-(2-(methyl(phenethyl)amino)ethyl)-1H-1,2,3-triazol-1-yl)phenyl)-6,7,8,9-tetrahydro-5H-pyrimido[4,5-e][1,4]diazepin-5-one], the Ki under setting [1] fell in the range of 100 to 500 nM.
In the case of `CCNc1ncc2c(n1)N(C)CCN(c1cccc(-n3cc(C(OCC)OCC)nn3)c1)C2=O` [Example 119, 6-(3-(4-(diethoxymethyl)-1H-1,2,3-triazol-1-yl)phenyl)-2-(ethylamino)-9-methyl-6,7,8,9-tetrahydro-5H-pyrimido[4,5-e][1,4]diazepin-5-one], the Ki under setting [1] is > 3000 nM.
By pKi is commonly meant −log10 of the Ki, conventionally taken in molar units. For `CCNc1ncc2c(n1)N(C)CCN(c1cccc(-n3cc(CN4CCC(c5cccc(O)c5)(N(C)C)CC4)nn3)c1)C2=O` [Example 293, 6-(3-(4-((4-(dimethylamino)-4-(3-hydroxyphenyl)piperidin-1-yl)methyl)-1H-1,2,3-triazol-1-yl)phenyl)-2-(ethylamino)-9-methyl-6,7,8,9-tetrahydro-5H-pyrimido[4,5-e] [1,4]diazepin-5-one], the pKi is 6.30 to 7.00.
